The record followed here is US20260008760A1, “DIPEPTIDYL PEPTIDASE 1 INHIBITORS AND USES THEREOF” (Insmed Incorporated, priority 2024, published 2026).

For experiment [1], the target named is human DPP1 enzyme (Homo sapiens, UniProt P53634). The experiment can be described thus: Human DPP1 Enzyme IC50 Assay. Type of experiment: biochemical. Also noted: was first proteolytically processed into its mature form using recombinant human cathepsin L; purchased R&D Systems. To be noted: activated recombinant human DPP1, 400 μM H-Gly-Arg-AMC, 10 minutes pre-incubation at 37° C., pH 6.0; average of n runs; read-out: Avg. IC50 (Human DPP1 enzyme IC50 value ranges). An outline of the steps: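 IC50 came from a four-parameter fit of activity relative to no-compound control, with fluorescence (Ex 350/Em 450 nm) read every 5 min for 90 min at 37 °C using 400 μM final H-Gly-Arg-AMC. Cathepsin L-matured human recombinant DPP1 was preincubated 10 min with compound at pH 6.0 (MES, DTT, 1% DMSO).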
Sequence of human DPP1 enzyme (P53634 25-134 limits assumed): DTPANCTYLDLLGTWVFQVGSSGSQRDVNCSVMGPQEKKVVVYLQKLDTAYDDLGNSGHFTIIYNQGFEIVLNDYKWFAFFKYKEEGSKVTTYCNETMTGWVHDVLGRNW
Sequence of human DPP1 enzyme (P53634 231-394 limits assumed): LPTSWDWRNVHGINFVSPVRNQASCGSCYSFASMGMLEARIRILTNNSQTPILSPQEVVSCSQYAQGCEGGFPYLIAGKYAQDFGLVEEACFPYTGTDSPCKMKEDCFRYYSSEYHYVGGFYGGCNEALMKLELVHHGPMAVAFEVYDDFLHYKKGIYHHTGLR
Sequence of human DPP1 enzyme (P53634 395-463 limits assumed): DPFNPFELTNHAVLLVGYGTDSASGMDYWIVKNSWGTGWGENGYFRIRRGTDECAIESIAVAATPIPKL

The target in experiment [2] is T1, active mouse DPP1 enzyme (Mus musculus, UniProt P97821).
T1 construct: Each subunit is composed of an N-terminal fragment, a heavy chain and a light chain; purchased R&D Systems
T1 sequence (P97821 25-134 limits assumed): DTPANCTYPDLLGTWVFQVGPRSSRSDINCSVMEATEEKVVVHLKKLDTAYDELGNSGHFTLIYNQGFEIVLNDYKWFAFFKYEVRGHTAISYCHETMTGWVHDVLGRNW
T1 sequence (P97821 231-393 limits assumed): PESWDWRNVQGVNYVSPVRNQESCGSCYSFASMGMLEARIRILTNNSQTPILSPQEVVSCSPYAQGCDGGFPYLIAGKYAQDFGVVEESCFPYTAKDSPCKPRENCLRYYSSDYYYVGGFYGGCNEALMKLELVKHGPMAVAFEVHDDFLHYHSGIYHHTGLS
T1 sequence (P97821 394-462 limits assumed): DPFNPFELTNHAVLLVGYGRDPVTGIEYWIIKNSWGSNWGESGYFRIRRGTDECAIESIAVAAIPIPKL
The experiment in a line: Mouse DPP1 Enzyme IC50 Assay. The format is biochemical. To be noted: active mouse DPP1 enzyme, H-Gly-Arg-AMC substrate, 10 minutes pre-incubation at 37° C., pH 5.5; average of n runs; read-out: Avg. IC50 (Mouse DPP1 enzyme IC50 value ranges). The procedure:
Example 96: Mouse DPP1 Enzyme IC50 Assay
Test articles were applied to active mouse DPP1 enzyme (R&D Systems; Minneapolis, MN) in Assay Buffer (50 mM MES pH 5.5, 50 mM NaCl, 5 mM DTT) in a total reaction volume of 125 μL. 25 μL of compound in Assay Buffer plus […] was first added to 50 μL of active mouse DPP1 enzyme at a concentration of 62.5 pg/μL and allowed to pre-incubate for 10 minutes at 37° C. after which 50 μL of […] H-Gly-Arg-AMC substrate (Bachem; St. Torrance, CA) was added, giving final substrate concentration of 400 µM and a final DMSO concentration of […]. Substrate cleavage was measured for 90 minutes at 37° C., with fluorescence at Excitation/Emission 350/450 nm measured every 5 minutes. DPP1 concentration was interpolated based on its activity relative to a standard curve of recombinant active mouse DPP enzyme. IC50 values for each compound were calculated via the XLFit (IDBS Version 5.3.1.3) Add-On to Microsoft Excel using the four parameter fit equation y=(A+((B−A)/(1+((C/x)^D)))), which appears as equation number 205 (4 Parameter Logistic Model or Sigmoidal Dose-Response Model) in XLFit. Default constraints were used for each Parameter. IC50 was defined as the compound concentration at which 50% of enzyme activity was inhibited when compared to the no-compound control.
In Table 2, *** represent average IC50≤5 nM, ** represents average IC50 in the range of 5-20 nM, and * represents average IC50 in the range of ≥20 nM, where the designations were made solely based on the average value without taking into account of the standard deviations.

Experiment [3] has as its target DPP1 in HL-60 cells (Homo sapiens, UniProt P53634). The experiment in a line: DPP1 Cell IC50 assay. Type of experiment: cell-based. Also on record: host or cells: HL-60 cells. Conditions: 60 min pre-incubation, H-Gly-Phe-AFC substrate, average of n runs, read-out: Avg. IC50 (DPP1 Cell IC50 value ranges). In outline: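 Intracellular DPP1 activity read as AFC fluorescence (Ex/Em 400/505 nm) after 30 min with H-Gly-Phe-AFC (500 μM stock), following 60 min compound pre-incubation at 37° C with HL-60 cells at 5×10^5 live cells per mL in PBS. IC50 by 4-parameter fit against DMSO-only controls.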

Sequence of DPP1 in HL-60 cells (P53634 25-463): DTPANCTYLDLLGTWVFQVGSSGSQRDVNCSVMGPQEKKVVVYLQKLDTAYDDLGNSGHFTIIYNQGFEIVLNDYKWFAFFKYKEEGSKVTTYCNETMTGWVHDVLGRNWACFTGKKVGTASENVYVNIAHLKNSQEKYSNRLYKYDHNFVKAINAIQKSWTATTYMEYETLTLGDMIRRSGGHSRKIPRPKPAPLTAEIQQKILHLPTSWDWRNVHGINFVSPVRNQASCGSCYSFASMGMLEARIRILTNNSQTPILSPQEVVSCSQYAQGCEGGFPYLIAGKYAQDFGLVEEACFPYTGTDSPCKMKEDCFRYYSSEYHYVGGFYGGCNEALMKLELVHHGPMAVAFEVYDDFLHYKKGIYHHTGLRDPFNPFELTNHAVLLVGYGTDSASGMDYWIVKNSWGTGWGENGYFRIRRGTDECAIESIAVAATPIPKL

For the molecule `CO[C@@H]1CCNC[C@@H](C(=O)N[C@H](C#N)Cc2ccc(-c3cc4c(C)nc(C)cn4c3)cc2F)OC1` [Compound A47, (2S,7R)—N-[(1S)-1-cyano-2-(4-{1,3-dimethylpyrrolo[1,2-a]pyrazin-7-yl}-2-fluorophenyl)ethyl]-7-methoxy-1,4-oxazocane-2-carboxamide], the concentration for half-maximal inhibition (IC50) in experiment [1] was less than 5 nM; in experiment [2], less than 5 nM; in experiment [3] it was 1 to 2.5 nM.

Regarding `N#C[C@H](Cc1ccc(-c2ccc(C(F)(F)F)cc2)cc1)NC(=O)[C@@H]1CNCCCO1` [Compound 12, (2S)—N-[(1S)-1-cyano-2-[4′-(trifluoromethyl)-[1,1′-biphenyl]-4-yl]ethyl]-1,4-oxazepane-2-carboxamide], the half-maximal inhibitory concentration (IC50) is more than 15 nM in experiment [1], more than 20 nM in experiment [2] and more than 2.5 nM in experiment [3].

For `N#C[C@H](Cc1ccc(-c2ccc3c(c2)CCNC3=O)cc1)NC(=O)[C@@H]1CNCCCO1` [Compound A2, (2S)—N-[(1S)-1-cyano-2-[4-(1-oxo-3,4-dihydro-2H-isoquinolin-6-yl)phenyl]ethyl]-1,4-oxazepane-2-carboxamide], the IC50 in experiment [1] is more than 15 nM; in experiment [2], more than 20 nM; in experiment [3], more than 2.5 nM.

As to `CN1CCC(n2ncc3ccc(-c4ccc(C[C@@H](C#N)NC(=O)[C@@H]5CNCCCO5)c(F)c4)cc32)CC1` [Compound A3, (2S)—N-[(1S)-1-cyano-2-{2-fluoro-4-[1-(1-methylpiperidin-4-yl)indazol-6-yl]phenyl}ethyl]-1,4-oxazepane-2-carboxamide], the results for the 50% inhibitory concentration (IC50) in experiment [1], in experiment [2] and in experiment [3] were 5 to 15 nM, more than 20 nM and more than 2.5 nM, respectively.

As to `Cc1csc(-c2ccc(C[C@@H](C#N)NC(=O)[C@@H]3CNCCCO3)cc2)n1` [Compound 11, (2S)—N-[(1S)-1-cyano-2-[4-(4-methyl-1,3-thiazol-2-yl)phenyl]ethyl]-1,4-oxazepane-2-carboxamide], the results for the IC50 in experiment [1], in experiment [2] and in experiment [3] were more than 15 nM, more than 20 nM and more than 2.5 nM, respectively.

For `N#Cc1ccc2c(c1)COc1cc(CC(C#N)NC(=O)[C@@H]3CNCCCCO3)c(F)cc1-2` (stereo partly drawn) [Compound B7, (2S)—N-(1-cyano-2-(8-cyano-2-fluoro-6H-benzo[c]chromen-3-yl)ethyl)-1,4-oxazocane-2-carboxamide], the IC50 is more than 15 nM in experiment [1], more than 20 nM in experiment [2] and more than 2.5 nM in experiment [3].

With `N#Cc1ccc(-c2ccc(C[C@@H](C#N)NC(=O)[C@@H]3CNCCCO3)cc2)cc1C1CC1` [Compound 8, (2S)—N-[(1S)-1-cyano-2-{4′-cyano-3′-cyclopropyl-[1,1′-biphenyl]-4-yl}ethyl]-1,4-oxazepane-2-carboxamide], the figures for the IC50 in experiment [1], in experiment [2] and in experiment [3] were more than 15 nM, more than 20 nM and more than 2.5 nM, respectively.

Regarding `N#Cc1ccc(-c2ccc(C[C@@H](C#N)NC(=O)[C@@H]3CNCCCO3)cc2)cc1C(F)(F)F` [Compound 7, (2S)—N-[(1S)-1-cyano-2-[4′-cyano-3′-(trifluoromethyl)-[1,1′-biphenyl]-4-yl]ethyl]-1,4-oxazepane-2-carboxamide], the IC50 in experiment [1] was more than 15 nM; in experiment [2] it was more than 20 nM; in experiment [3] it was more than 2.5 nM.

In the case of `CN1C(=O)C2(CCCN(C3COC3)C2)c2cc(-c3ccc(C[C@@H](C#N)NC(=O)[C@@H]4CNCCCO4)cc3)ccc21` (stereo partly drawn) [Compound 28, (2S)—N-[(1S)-1-cyano-2-{4-[1-methyl-1′-(oxetan-3-yl)-2-oxospiro[indole-3,3′-piperidin]-5-yl]phenyl}ethyl]-1,4-oxazepane-2-carboxamide], the IC50 in experiment [1] is more than 15 nM; in experiment [2] it was more than 20 nM; in experiment [3], more than 2.5 nM.

Consider `N#C[C@H](Cc1ccc(-c2ccc3c(n2)CCCN3)cc1)NC(=O)[C@@H]1CNCCCO1` [Compound A10, (2S)—N-[(1S)-1-cyano-2-[4-(5,6,7,8-tetrahydro-1,5-naphthyridin-2-yl)phenyl]ethyl]-1,4-oxazepane-2-carboxamide], for which the IC50 in experiment [1] is more than 15 nM; in experiment [2], more than 20 nM; in experiment [3] it was more than 2.5 nM.

Broadly, the IC50 is the point on the concentration scale where inhibition reaches its midpoint.
